This note sets out measurements from publication PMC11156613 (Journal of Advanced Research, 2023).

One assay deals with T1, Recombinant human HDAC11 (Homo sapiens, UniProt Q96DB2).
T1 sequence (Q96DB2 1-347): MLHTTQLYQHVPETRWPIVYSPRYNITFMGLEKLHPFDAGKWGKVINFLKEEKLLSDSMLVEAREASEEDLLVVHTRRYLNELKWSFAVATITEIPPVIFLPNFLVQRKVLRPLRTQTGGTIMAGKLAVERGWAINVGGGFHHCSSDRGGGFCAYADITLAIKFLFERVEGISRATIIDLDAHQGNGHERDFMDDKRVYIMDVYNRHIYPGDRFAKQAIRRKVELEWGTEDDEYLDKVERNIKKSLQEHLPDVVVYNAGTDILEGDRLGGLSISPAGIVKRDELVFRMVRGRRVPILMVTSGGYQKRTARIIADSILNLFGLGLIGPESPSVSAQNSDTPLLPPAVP
In words: In vitro HDAC11 inhibition assay. Type of assay: biochemical.

A further assay concerns HEL cells. The assay can be described thus: Apoptosis induction, annexin-V/PI flow cytometry. The class given is cell-based, human. The conditions noted are these: 24 h. (In flow cytometry, cells or beads pass a laser one at a time.)
For a further assay, the target named is Recombinant human HDAC1 (Homo sapiens, UniProt Q13547). In words: In vitro HDAC enzymatic assay, HDAC1. Type of assay: biochemical.
For a further assay, the target named is T2, recombinant human HDAC8 (Homo sapiens, UniProt Q9BY41).
T2 sequence (Q9BY41 1-377): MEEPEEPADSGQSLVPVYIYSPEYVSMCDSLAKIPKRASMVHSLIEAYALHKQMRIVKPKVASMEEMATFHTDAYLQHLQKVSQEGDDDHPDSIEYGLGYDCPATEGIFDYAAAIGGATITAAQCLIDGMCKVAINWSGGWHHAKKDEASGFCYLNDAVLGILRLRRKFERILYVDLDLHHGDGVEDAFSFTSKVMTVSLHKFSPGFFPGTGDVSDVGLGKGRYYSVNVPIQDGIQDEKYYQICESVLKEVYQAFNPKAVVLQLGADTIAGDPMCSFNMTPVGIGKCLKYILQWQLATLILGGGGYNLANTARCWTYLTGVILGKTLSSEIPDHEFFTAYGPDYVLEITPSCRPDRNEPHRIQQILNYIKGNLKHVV
In words: In vitro HDAC8 homogenous fluorescence assay. The class given is biochemical.

Another assay concerns the target Recombinant human HDAC2 (Homo sapiens, UniProt Q92769). In words: In vitro HDAC enzymatic assay, HDAC2. Type of assay: biochemical.
The target of assay [1] is Recombinant human HDAC3/NCOR1 (Homo sapiens, UniProt O15379). In words: In vitro HDAC enzymatic assay, HDAC3.
For another assay, the target named is T3, Recombinant human HDAC6 (Homo sapiens, UniProt Q9UBN7).
T3 sequence (Q9UBN7 1-1215): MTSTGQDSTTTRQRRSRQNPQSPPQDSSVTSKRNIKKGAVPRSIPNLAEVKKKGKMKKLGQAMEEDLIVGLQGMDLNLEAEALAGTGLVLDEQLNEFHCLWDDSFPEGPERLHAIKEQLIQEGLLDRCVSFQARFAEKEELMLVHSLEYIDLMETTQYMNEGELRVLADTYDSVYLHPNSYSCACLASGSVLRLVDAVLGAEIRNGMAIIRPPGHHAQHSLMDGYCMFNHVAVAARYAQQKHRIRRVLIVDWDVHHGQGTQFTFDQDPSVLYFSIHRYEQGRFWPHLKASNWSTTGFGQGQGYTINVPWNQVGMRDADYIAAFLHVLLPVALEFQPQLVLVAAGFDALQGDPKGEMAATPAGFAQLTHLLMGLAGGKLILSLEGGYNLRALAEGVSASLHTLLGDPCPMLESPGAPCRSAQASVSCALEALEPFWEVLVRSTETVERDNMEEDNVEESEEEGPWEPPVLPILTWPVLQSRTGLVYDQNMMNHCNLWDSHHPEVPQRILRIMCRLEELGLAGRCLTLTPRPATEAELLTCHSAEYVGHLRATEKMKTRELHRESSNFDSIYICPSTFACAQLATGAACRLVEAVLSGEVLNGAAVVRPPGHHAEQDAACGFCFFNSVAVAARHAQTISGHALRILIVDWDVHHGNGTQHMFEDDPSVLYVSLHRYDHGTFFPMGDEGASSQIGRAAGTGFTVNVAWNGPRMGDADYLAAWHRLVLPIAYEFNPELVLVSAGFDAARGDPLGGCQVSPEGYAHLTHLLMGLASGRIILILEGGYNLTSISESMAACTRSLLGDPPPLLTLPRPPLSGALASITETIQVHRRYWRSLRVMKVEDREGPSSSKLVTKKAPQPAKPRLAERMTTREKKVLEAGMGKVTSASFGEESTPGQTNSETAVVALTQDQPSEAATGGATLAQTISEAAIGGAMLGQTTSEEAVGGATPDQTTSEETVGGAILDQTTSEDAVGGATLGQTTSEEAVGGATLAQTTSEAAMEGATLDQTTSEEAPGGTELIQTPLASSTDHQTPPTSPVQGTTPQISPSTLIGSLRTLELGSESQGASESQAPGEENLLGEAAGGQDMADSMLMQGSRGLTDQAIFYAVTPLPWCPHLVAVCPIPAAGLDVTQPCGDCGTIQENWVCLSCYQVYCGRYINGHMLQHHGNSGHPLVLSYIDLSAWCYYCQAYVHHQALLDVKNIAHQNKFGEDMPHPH
The assay can be described thus: In vitro HDAC enzymatic assay, HDAC6. Type of assay: biochemical.

Where two headings read alike, the source gives them in different places.

Chain of Recombinant human HDAC1 (Q13547 whole entry): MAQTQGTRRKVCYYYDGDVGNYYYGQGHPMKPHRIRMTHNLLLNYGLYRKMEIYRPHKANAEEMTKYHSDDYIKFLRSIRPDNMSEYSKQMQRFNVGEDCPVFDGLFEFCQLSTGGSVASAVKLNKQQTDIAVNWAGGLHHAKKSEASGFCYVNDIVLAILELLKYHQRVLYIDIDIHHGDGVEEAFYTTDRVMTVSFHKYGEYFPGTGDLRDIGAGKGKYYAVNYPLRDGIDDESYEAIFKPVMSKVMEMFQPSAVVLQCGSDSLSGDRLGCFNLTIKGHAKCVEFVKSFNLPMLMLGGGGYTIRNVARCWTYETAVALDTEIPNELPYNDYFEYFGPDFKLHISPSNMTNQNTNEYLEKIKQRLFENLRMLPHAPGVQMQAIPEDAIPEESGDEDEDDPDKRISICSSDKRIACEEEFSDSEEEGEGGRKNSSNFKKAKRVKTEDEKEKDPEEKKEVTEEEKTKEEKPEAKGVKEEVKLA
Chain of Recombinant human HDAC3/NCOR1 (O15379 whole entry): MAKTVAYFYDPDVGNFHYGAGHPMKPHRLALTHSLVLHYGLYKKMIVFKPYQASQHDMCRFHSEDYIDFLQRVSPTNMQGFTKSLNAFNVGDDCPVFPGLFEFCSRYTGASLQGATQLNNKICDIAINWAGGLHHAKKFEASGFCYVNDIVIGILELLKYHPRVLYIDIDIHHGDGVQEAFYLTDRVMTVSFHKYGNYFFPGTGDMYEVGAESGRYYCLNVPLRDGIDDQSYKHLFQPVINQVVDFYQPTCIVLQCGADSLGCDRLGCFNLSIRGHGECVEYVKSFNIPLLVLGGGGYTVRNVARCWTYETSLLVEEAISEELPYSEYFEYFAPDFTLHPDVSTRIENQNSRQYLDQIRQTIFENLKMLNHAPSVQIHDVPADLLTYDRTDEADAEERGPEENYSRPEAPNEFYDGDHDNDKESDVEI
Chain of Recombinant human HDAC3/NCOR1 (O75376 395-489 partner limits assumed): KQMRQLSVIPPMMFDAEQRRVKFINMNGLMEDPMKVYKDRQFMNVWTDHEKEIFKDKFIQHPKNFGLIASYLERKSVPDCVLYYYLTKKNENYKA
Chain of Recombinant human HDAC2 (Q92769 whole entry): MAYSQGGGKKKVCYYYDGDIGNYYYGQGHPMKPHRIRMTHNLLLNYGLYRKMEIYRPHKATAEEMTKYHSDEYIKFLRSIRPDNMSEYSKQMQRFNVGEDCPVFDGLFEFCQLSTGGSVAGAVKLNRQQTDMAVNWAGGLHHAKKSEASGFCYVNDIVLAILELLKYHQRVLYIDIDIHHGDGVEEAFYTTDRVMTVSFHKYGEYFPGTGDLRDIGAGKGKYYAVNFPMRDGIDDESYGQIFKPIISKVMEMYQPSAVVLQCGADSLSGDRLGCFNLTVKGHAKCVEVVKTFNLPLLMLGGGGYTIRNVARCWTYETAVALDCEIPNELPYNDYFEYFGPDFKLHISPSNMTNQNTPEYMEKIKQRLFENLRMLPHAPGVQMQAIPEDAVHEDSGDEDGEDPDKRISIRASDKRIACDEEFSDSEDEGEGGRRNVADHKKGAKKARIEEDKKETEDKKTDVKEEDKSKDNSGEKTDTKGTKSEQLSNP

Consider `Cl.Cn1cc(CN2CCN(c3ncc(C(=O)NO)cn3)CC2)c2ccccc21` [KH29, N-hydroxy-2-(4-((1-methyl-1H-indol-3-yl)methyl)piperazin-1-yl)pyrimidine-5-carboxamide Hydrochloride], for which the IC50 on Recombinant human HDAC11 was 1000 ± 100 nM; at Recombinant human HDAC1 (HDAC1 IC50, Ac-RHKK(Acetyl)-AMC substrate, 37 °C) it was 9.4 ± 0.5 nM; at Recombinant human HDAC1 (HDAC1 IC50, as stated in text), 9 nM; on recombinant human HDAC8, 49 ± 2 nM; at Recombinant human HDAC2, 26 ± 1 nM; in assay [1] it was 20 ± 1 nM. Further, the IC50 on Recombinant human HDAC6 came to 25 ± 1 nM. Besides, the “concentration at which apoptosis induction starts” value in the assay with HEL cells is on record as 55 nM. The “fold more potent inhibitor of HDAC6 than KH9 and KH16” value on Recombinant human HDAC6 (from Table 1 IC50 values) is reported as “at least 10 fold”.
Turning to `COc1ccc(/C=C/CN2CCN(c3ncc(C(=O)NO)cn3)CC2)cc1.Cl` [KH9, (E)-N-Hydroxy-2-(4-(3-(4-methoxyphenyl)allyl)piperazin-1-yl)pyrimidine-5-carboxamide Hydrchloride], the IC50 is 1500 ± 100 nM at Recombinant human HDAC11 (read-out: HDAC11 IC50); 9 nM on Recombinant human HDAC1 (read-out: HDAC1 IC50); 8.9 ± 0.5 nM at Recombinant human HDAC1 (read-out: HDAC1 IC50, Ac-RHKK(Acetyl)-AMC substrate, 37 °C); 110 ± 10 nM on recombinant human HDAC8 (read-out: HDAC8 IC50, ZMAL 10.5 μM, 90 min, 37 °C); 22 ± 1 nM at Recombinant human HDAC2 (read-out: HDAC2 IC50, Ac-RHKK(Acetyl)-AMC substrate, 37 °C); 19 ± 1 nM in assay [1] (read-out: HDAC3 IC50, Ac-RHKK(Acetyl)-AMC substrate, 37 °C). Further, at Recombinant human HDAC6 (read-out: HDAC6 IC50, Abz-SRGGK(thio-TFA)FFRR-NH2 substrate), the IC50 was 140 ± 10 nM. Further, the “concentration at which apoptosis induction starts” value in the assay with HEL cells is “approximately 50 nM”.

As a reminder, the IC50 is the concentration that gives 50% inhibition.
